Among the data in paper PMC9310613, “Selenocarbamates As a Prodrug‐Based Approach to Carbonic Anhydrase Inhibition” (Chemmedchem, 2022) are Ki values, retold here.

Read-outs that look alike come from different tables or passages of the source.

Holding throughout (test): stopped-flow CO2 hydration assay
Holding throughout (type): biochemical

One experiment has as its target T1, hCA I (Homo sapiens, UniProt P00915).
T1 construct: gene CA1; recombinant, obtained in house
From the text:
stopped-flow CO2 hydration assay on hCA I

Experiment [1] addresses T2, hCA II (Homo sapiens, UniProt P00918).
T2 construct: gene CA2; recombinant, obtained in house
An excerpt: stopped-flow CO2 hydration assay on hCA II

Experiment [2] deals with T2, hCA II. The note with it: read-out: hCA I.

T1 sequence (P00915 2-261): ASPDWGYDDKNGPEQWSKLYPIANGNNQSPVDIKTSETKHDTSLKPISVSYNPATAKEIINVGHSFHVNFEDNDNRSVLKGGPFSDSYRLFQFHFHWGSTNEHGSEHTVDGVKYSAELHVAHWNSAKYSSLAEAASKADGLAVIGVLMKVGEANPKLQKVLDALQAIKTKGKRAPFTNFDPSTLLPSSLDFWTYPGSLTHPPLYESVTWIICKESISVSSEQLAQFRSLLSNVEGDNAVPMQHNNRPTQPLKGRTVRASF

Regarding `C=CCOCC(O)C[Se]C(=O)Nc1cc(C)cc(C)c1` (racemic) [3q, 3 q], the Ki is 67.5 µM at hCA I and 79.3 µM at hCA II [1].

As to `CC(C)OCC(O)C[Se]C(=O)NC12CC3CC(CC(C3)C1)C2` (racemic) [3r, 3 r], the figures for the Ki at hCA I and on hCA II [1] were 92.7 µM and 79.4 µM, respectively.

On to `Cc1cc(C)cc(NC(=O)[Se][C@@H]2CCCC[C@H]2O)c1` (relative stereo) [3s, 3 s], for which the values for the Ki at hCA I and on hCA II [1] were 74.3 µM and 84.6 µM, respectively.

On to `O=C(NCc1ccco1)[Se][C@@H]1CCCC[C@H]1O` (relative stereo) [3t, 3 t], for which the Ki is 67.4 µM at hCA I and 83.4 µM at hCA II [1].

For the compound `Cc1cc(C)cc(NC(=O)[Se]c2ccccc2)c1` [3a, 3 a], the Ki on hCA I came to 49.5 µM; on hCA II [1] it was 5.3 µM.

For the compound `O=C(Nc1ccccc1)[Se]c1ccccc1` [3b, 3 b], the Ki at hCA I turned out to be 40.4 µM; at hCA II [1], 4.1 µM.

For the compound `Cc1ccc(NC(=O)[Se]c2ccccc2)cc1` [3c, 3 c], the Ki at hCA I was 25.9 µM; on hCA II [1] it was 8.4 µM.

`COc1cccc(NC(=O)[Se]c2ccccc2)c1` [3d, 3 d]: the figures for the Ki on hCA I and on hCA II [1] were 49.3 µM and 7.9 µM, respectively.

Regarding `O=C(Nc1ccccc1F)[Se]c1ccccc1` [3e, 3 e], the Ki at hCA I amounted to 30.8 µM; at hCA II [1] it was 9.2 µM.

`O=C(Nc1ccc(F)cc1)[Se]c1ccccc1` [3f, 3 f]: the Ki on hCA I turned out to be 15.3 µM; at hCA II [1], 9.4 µM.

`O=C(Nc1ccc(Cl)cc1)[Se]c1ccccc1` [3g, 3 g]: the values for the Ki on hCA I and on hCA II [1] were 42.5 µM and 13.1 µM, respectively.

Regarding `O=C(Nc1ccc(Br)cc1)[Se]c1ccccc1` [3h, 3 h], the Ki on hCA I amounted to 13.8 µM; on hCA II [1], 8.6 µM.

`O=C(NCc1ccco1)[Se]c1ccccc1` [3i, 3 i]: the Ki at hCA I came to 8.8 µM; on hCA II [1] it was 40.4 µM.

For the compound `NC(=O)[Se]c1ccccc1` [3j, 1‐(phenylselanyl)formamide], the Ki worked out at 9.8 µM on hCA I and 6.8 µM on hCA II [1].

`Cc1ccc([Se]C(=O)Nc2ccc(Br)cc2)cc1` [3k, 3 k]: the Ki at hCA I is 38.6 µM; at hCA II [1] it was 11.6 µM.

In the case of `Cc1ccccc1[Se]C(=O)Nc1ccc(Br)cc1` [3l, 3 l], the figures for the Ki at hCA I and at hCA II [1] were 13.4 µM and 8 µM, respectively.

As to `CCCCCCCCCCCC[Se]C(=O)Nc1ccc(Br)cc1` [3m, 3 m], the Ki is 92.1 µM on hCA I and 87.4 µM at hCA II [1].

Regarding `CCCCCCCCCCCC[Se]C(N)=O` [3n, 3 n], the results for the Ki at hCA I and on hCA II [1] were 90.3 µM and 85.2 µM, respectively.

Take `O=C(Nc1ccc(Br)cc1)[Se]Cc1ccccc1` [3p, 3 p]: the Ki stood at 85 µM at hCA I and 39.9 µM on hCA II [1].

In the case of `Cc1ccc(S(=O)(=O)N[C@@H](C)C[Se]C(=O)Nc2cc(C)cc(C)c2)cc1` [3u, 3 u], the Ki on hCA I and at hCA II [2] was > 100 µM throughout.
